What all share (assay type): binding
The target in one test is T1, huUHRF1-PHD296–367 (Homo sapiens, UniProt Q96T88).
T1 construct: (His)6-GST (N, cleaved yes); made in house; host or cells: Escherichia coli Rosetta 2
T1 sequence (Q96T88 296-367): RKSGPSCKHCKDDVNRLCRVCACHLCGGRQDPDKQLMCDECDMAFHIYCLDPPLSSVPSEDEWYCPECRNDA
Kind of test: ITC, wild-type huUHRF1-PHD296–367 with histone H3 peptides. Particulars: 20°C, 20 mM Tris pH 7, 150 mM NaCl, 0.5 mM TCEP, 25 µM ZnCl2, 0.1 mM PMSF, peptide 1.5–2 mM into protein 0.12–0.18 mM, at least in duplicates. The procedure: Measurements were carried out at 20°C on an ITC200 Microcal calorimeter (MicroCal). […] A typical titration consisted of 19 injections of 2 µl of peptide into 203 µl of the protein solution at time intervals of 150–300 s. Control experiments were performed under identical conditions to determine the dilution heat of the titrant peptide into buffer. Data were analyzed using the software ORIGIN 5.0 (OriginLab Corporation) and all the measurements were performed, at least, in duplicates.
(In ITC the heat of successive injections is recorded.)

The next test addresses T2, huUHRF1-PHD296–367 D337A (Homo sapiens, UniProt Q96T88, D337A).
T2 construct: Characterization of key residues for the recognition of the histone H3 tail by huUHRF1-PHD296–367; (His)6-GST (N, cleaved yes); made in house; host or cells: Escherichia coli Rosetta 2
T2 sequence (Q96T88 296-367 D337A): T1 sequence (Q96T88 296-367) with D42A
Briefly: ITC, D337A mutant. Conditions: 20°C, 20 mM Tris pH 7, 150 mM NaCl, 0.5 mM TCEP, 25 µM ZnCl2, at least in duplicates. The procedure: (§1) Measurements were carried out at 20°C on an ITC200 Microcal calorimeter (MicroCal). Histone peptides (1–12Y, 1.5–2 mM) were injected to a sample of either wild-type or mutant huUHRF1-PHD (0.12–0.18 mM) in a reaction buffer containing 20 mM Tris pH 7, 150 mM NaCl, 0.5 mM TCEP, 25 µM ZnCl2 and 0.1 mM PMSF. A typical titration consisted of 19 injections of 2 µl of peptide into 203 µl of the protein solution at time intervals of 150–300 s. Control experiments were performed under identical conditions to determine the dilution heat of the titrant peptide into buffer. Data were analyzed using the software ORIGIN 5.0 (OriginLab Corporation) and all the measurements were performed, at least, in duplicates.

For a further test, the target named is T3, huUHRF1-PHD296–367 D334A (Homo sapiens, UniProt Q96T88, D334A).
T3 construct: Characterization of key residues for the recognition of the histone H3 tail by huUHRF1-PHD296–367; (His)6-GST (N, cleaved yes); made in house; host or cells: Escherichia coli Rosetta 2
T3 sequence (Q96T88 296-367 D334A): T1 sequence (Q96T88 296-367) with D39A
Kind of test: ITC, D334A mutant. Particulars: 20°C, 20 mM Tris pH 7, 150 mM NaCl, 0.5 mM TCEP, 25 µM ZnCl2, at least in duplicates. As for the experimental part:
as §1

Residue numbers refer to the chain shown, from its start. Where no end group is shown, it is not given here.

For `C[C@H](N)C(=O)N[C@@H](CCCNC(=N)N)C(=O)N[C@H](C(=O)N[C@@H](CCCCN)C(=O)N[C@@H](CCC(N)=O)C(=O)N[C@H](C(=O)N[C@@H](C)C(=O)N[C@@H](CCCNC(=N)N)C(=O)N[C@@H](CCCCN)C(=O)N[C@@H](CO)C(=O)N[C@H](C(=O)NCC(=O)N[C@@H](Cc1ccc(O)cc1)C(=O)O)[C@@H](C)O)[C@@H](C)O)[C@@H](C)O` [unmodified H3], binding on huUHRF1-PHD296–367 was put at a Kd of 7.9 µM.
With ARTAQTARKSTGY [H3K4A (1-12Y)], binding at huUHRF1-PHD296–367 was put at a Kd of 16.6 ± 0.9 µM.
Regarding `C[C@H](N)C(=O)N[C@@H](CCCNC(=N)N)C(=O)N[C@H](C(=O)N[C@@H](CCCCN)C(=O)N[C@@H](CCC(N)=O)C(=O)N[C@H](C(=O)N[C@@H](C)C(=O)N[C@@H](CCCNC(=N)N)C(=O)N[C@@H](CCCCN)C(=O)N[C@@H](CO)C(=O)N[C@H](C(=O)NCC(=O)N[C@@H](Cc1ccc(O)cc1)C(=O)O)[C@@H](C)O)[C@@H](C)O)[C@@H](C)O` [H3 (1-12Y)], the figures for the Kd at huUHRF1-PHD296–367 D337A and at huUHRF1-PHD296–367 D334A were 68 ± 8 µM and more than 500 µM, respectively.

The values are drawn from PMC3214078 (PLoS ONE, 2011).
